In patent US10189836B2, “Therapeutic compounds, compositions and methods of use thereof” (Genentech, Inc., priority 2015, dated 2019) one finds Ki data, which are given here for 21 compounds.

Molecules are shown by their SMILES.

The target in assay [1] is isolated recombinant JAK1 kinase domain (Homo sapiens (Human), UniProt P23458). Put plainly: JAK1 enzyme assay (Caliper LabChip, Ki). In kind it is biochemical. As to conditions: isolated recombinant JAK1 kinase domain, 1.5 nM enzyme, ATP 25 μM.
Assay [2] has as its target isolated recombinant JAK2 kinase domain (Homo sapiens (Human), UniProt O60674). In words: JAK2 enzyme assay (Caliper LabChip, Ki). The assay is classed as biochemical. As to conditions: isolated recombinant JAK2 kinase domain, 0.2 nM enzyme, ATP 25 μM.

Sequence of isolated recombinant JAK2 kinase domain (O60674 849-1124): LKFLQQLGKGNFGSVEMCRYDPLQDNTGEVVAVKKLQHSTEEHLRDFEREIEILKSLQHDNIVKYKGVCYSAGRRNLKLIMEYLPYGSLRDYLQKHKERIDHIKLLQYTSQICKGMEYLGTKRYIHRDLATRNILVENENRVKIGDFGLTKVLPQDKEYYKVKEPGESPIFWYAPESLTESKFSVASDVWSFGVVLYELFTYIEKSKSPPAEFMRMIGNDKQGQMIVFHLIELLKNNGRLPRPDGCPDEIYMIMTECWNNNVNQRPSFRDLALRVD
Sequence of isolated recombinant JAK1 kinase domain (P23458 875-1153): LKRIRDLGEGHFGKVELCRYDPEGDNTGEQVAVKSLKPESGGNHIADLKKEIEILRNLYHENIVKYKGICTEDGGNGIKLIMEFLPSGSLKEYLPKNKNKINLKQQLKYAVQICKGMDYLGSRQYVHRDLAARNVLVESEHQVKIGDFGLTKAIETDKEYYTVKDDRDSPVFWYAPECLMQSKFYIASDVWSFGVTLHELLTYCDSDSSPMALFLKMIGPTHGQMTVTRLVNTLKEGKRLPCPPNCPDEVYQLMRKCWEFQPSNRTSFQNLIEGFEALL

As to `CN1CCN(C(=O)Cn2cc(Nc3nc4c(N5CC6CCC(C5)N6Cc5ccccc5F)cccn4n3)cn2)CC1` [Example 137, 2-(4-((8-((1R,5 S)-8-(2-fluorobenzyl)-3,8-diazabicyclo[3.2.1]octan-3-yl)-[1,2,4]triazolo[1,5-a]pyridin-2-yl)amino)-1H-pyrazol-1l-yl)-1-(4-methylpiperazin-1-yl)ethan-1-one], the inhibition constant Ki in assay [1] stood at 1000 pM; in assay [2], 700 pM.

On to `Cc1ncc(S(=O)(=O)N2C3CCC2CN(c2cccn4nc(Nc5cnn(CC(=O)N6CCN(C)CC6)c5)nc24)C3)s1` [Example 138, 1-(4-methylpiperazin-1-yl)-2-[4-[[8-[8-(2-methylthiazol-5-yl)sulfonyl-3,8-diazabicyclo[3.2.1]octan-3-yl]-[1,2,4]triazolo[1,5-a]pyridin-2-yl]amino]pyrazol-1-yl]ethanone], for which the values for the Ki in assay [1] and in assay [2] were 700 pM and 800 pM, respectively.

`Cc1cc(S(=O)(=O)N2C3CCC2CN(c2cccn4nc(Nc5cnn(CC(=O)N6CCN(C)CC6)c5)nc24)C3)sn1` [Example 139, 2-[4-[[8-[8-(3-yl)sulfonyl-3,8-diazabicyclo[3.2.1]octan-3-yl]-[1,2,4]triazolo[1,5-a]pyridin-2-yl]amino]pyrazol-1-yl]-1-(4-methylpiperazin-1-yl)ethanone]: the values for the Ki in assay [1] and in assay [2] were 800 pM and 600 pM, respectively.

As to `CN1CCN(C(=O)Cn2cc(Nc3nc4c(N5CC6CCC(C5)N6C(=O)c5ccccc5C#N)cccn4n3)cn2)CC1` [Example 140, 2-[3-[2-[[1-[2-(4-methylpiperazin-1-yl)-2-oxo-ethyl]pyrazol-4-yl]amino]-[1,2,4]triazolo[1,5-a]pyridin-8-yl]-3,8-diazabicyclo[3.2.1]octane-8-carbonyl]benzonitrile], the inhibition constant Ki in assay [1] was 400 pM; in assay [2], 800 pM.

Regarding `CN1CCN(C(=O)Cn2cc(Nc3nc4c(N5CC6CCC(C5)N6C(=O)N5CC(O)(C(F)(F)F)C5)cccn4n3)cn2)CC1` [Example 141, 2-[4-[[8-[8-[3-hydroxy-3-(trifluoromethyl)azetidine-1-carbonyl]-3,8-diazabicyclo[3.2.1]octan-3-yl]-[1,2,4]triazolo[1,5-a]pyridin-2-yl]amino]pyrazol-1-yl]-1-(4-methylpiperazin-1-yl)ethanone], the results for the Ki in assay [1] and in assay [2] were 200 pM and 300 pM, respectively.

As for `CN1CCN(C(=O)Cn2cc(Nc3nc4c(N5C[C@H]6CC[C@@H](C5)[C@H]6OCc5ccccc5C#N)cccn4n3)cn2)CC1` [Example 142, 2-[[rac-(1S,5R)-3-[2-[[1-[2-(4-methylpiperazin-1-yl)-2-oxo-ethyl]pyrazol-4-yl]amino]-[1,2,4]triazolo[1,5-a]pyridin-8-yl]-3-azabicyclo[3.2.1]octan-8-yl]oxymethyl]benzonitrile], the Ki in assay [1] turned out to be 700 pM; in assay [2], 1700 pM.

In the case of `CN1CCN(C(=O)Cn2cc(Nc3nc4c(N5CC6CCC(C5)N6S(=O)(=O)c5cccc(C#N)c5)cccn4n3)cn2)CC1` [Example 143, 3-[[3-[2-[[1-[2-(4-methylpiperazin-1-yl)-2-oxo-ethyl]pyraol-4-yl]amino]-[1,2,4]triazolo[1,5-a]pyridin-8-yl]-3,8-diazabicyclo[3.2.1]octan-8-yl]sulfonyl]benzonitrile], the Ki in assay [1] turned out to be 500 pM; in assay [2], 1100 pM.

With `COC1(C(F)(F)F)CN(C(=O)N2C3CCC2CN(c2cccn4nc(Nc5cnn(CC(=O)N6CCN(C)CC6)c5)nc24)C3)C1` [Example 146, 2-[4-[[8-[8-[3-methoxy-3-(trifluoromethyl)azetidine-1-carbonyl]-3,8-diazabicyclo[3.2.1]octan-3-yl]-[1,2,4]triazolo[1,5-a]pyridin-2-yl]amino]pyrazol-1-yl]-1-(4-methylpiperazin-1-yl)ethanone], the Ki in assay [1] and in assay [2] was 6100 pM throughout.

As to `CN1CCN(C(=O)Cn2cc(Nc3nc4c(N5CC6CCC(C5)N6S(=O)(=O)c5ccccc5C#N)cccn4n3)cn2)CC1` [Example 147, 2-[[3-[2-[[1-[2-(4-methylpiperazin-1-yl)-2-oxo-ethyl]pyrazol-4-yl]amino]-[1,2,4]triazolo[1,5-a]pyridin-8-yl]-3,8-diazabicyclo[3.2.1]octan-8-yl]sulfonyl]benzonitrile], the Ki in assay [1] was found to be 400 pM; in assay [2] it was 300 pM.

As for `CN1CCN(C(=O)Cn2cc(Nc3nc4c(N5CC6CCC(C5)N6S(=O)(=O)c5ccccc5C(F)(F)F)cccn4n3)cn2)CC1` [Example 148, 1-(4-methylpiperazin-1-yl)-2-[4-[[8-[8-(2-(trifluoromethyl)phenyl]sulfonyl-3,8-diazabicyclo[3.2.1]octan-3-yl]-[1,2,4]triazolo[1,5-a]pyridin-2-yl]amino]pyrazol-1-yl]ethanone], the Ki is 1900 pM in assay [1] and 3100 pM in assay [2].

In the case of `CN1CCN(C(=O)Cn2cc(Nc3nc4c(N5CC6CCC(C5)N6S(=O)(=O)c5ccc(C#N)cc5)cccn4n3)cn2)CC1` [Example 149, 4-[3-[2-([1-[2-(4-methylpiperazin-1-yl)-2-oxoethyl]-1H-pyrazol-4-yl]amino)-[1,2,4]triazolo[1,5-a]pyridin-8-yl]-3,8-diazabicyclo[3.2.1]octane-8-sulfonyl]benzonitrile], the Ki in assay [1] worked out at 1100 pM; in assay [2] it was 2000 pM.

Turning to `CN1CCN(C(=O)Cn2cc(Nc3nc4c(N5CC6CCC(C5)N6S(=O)(=O)c5ccccc5F)cccn4n3)cn2)CC1` [Example 150, 2-[4-[[8-[8-(2-fluorophenyl)sulfonyl-3,8-diazabicyclo[3.2.1]octan-3-yl]-[1,2,4]triazolo[1,5-a]pyridin-2-yl]amino]pyrazol-1-yl]-1-(4-methylpiperazin-1-yl)ethanone], the figures for the inhibitory constant (Ki) in assay [1] and in assay [2] were 700 pM and 1500 pM, respectively.

On to `O=C(Cn1cc(Nc2nc3c(N4CC5CCC(C4)N5C(=O)CCC(F)(F)F)cccn3n2)cn1)N1CCN(C2CCC2)CC1` [Example 152, 1-[3-[2-[[1-[2-(4-cyclobutylpiperazin-1-yl)-2-oxo-ethyl]pyrazol-4-yl]amino]-[1,2,4]triazolo[1,5-a]pyridin-8-yl]-3,8-diazabicyclo[3.2.1]octan-8-yl]-4,4,4-trifluoro-butan-1-one], for which the inhibitory constant (Ki) in assay [1] is 600 pM; in assay [2], 1700 pM.

Regarding `O=C(Cn1cc(Nc2nc3c(N4CC5CCC(C4)N5C(=O)CCC(F)(F)F)cccn3n2)cn1)N1CCN(C2CCCCC2)CC1` [Example 153, 1-[3-[2-[[1-[2-(4-cyclohexylpiperazin-1-yl)-2-oxo-ethyl]pyrazol-4-yl]amino]-[1,2,4]triazolo[1,5-a]pyridin-8-yl]-3,8-diazabicyclo[3.2.1]octan-8-yl]-4,4,4-trifluoro-butan-1-one], the results for the Ki in assay [1] and in assay [2] were 200 pM and 300 pM, respectively.

For `CN1CCN(C(=O)Cn2cc(Nc3nc4c(N5CC6CCC(C5)N6C(=O)CC(O)C(F)(F)F)cccn4n3)cn2)CC1` (stereo not drawn) [Example 154, 4,4,4-trifluoro-3-hydroxy-1-[3-[2-[[1-[2-(4-methylpiperazin-1-yl)-2-oxo-ethyl]pyrazol-4-yl]amino]-[1,2,4]triazolo[1,5-a]pyridin-8-yl]-3,8-diazabicyclo[3.2.1]octan-8-yl]butan-1-one], the inhibition constant (Ki) in assay [1] turned out to be 500 pM; in assay [2] it was 900 pM.

As for `CN1CCN(C(=O)Cn2cc(Nc3nc4c(N5CC6CCC(C5)N6S(=O)(=O)c5cccc(F)c5)cccn4n3)cn2)CC1` [Example 156, 2-[4-[[8-[8-(3-fluorophenyl)sulfonyl-3,8-diazabicyclo[3.2.1]octan-3-yl]-[1,2,4]triazolo[1,5-a]pyridin-2-yl]amino]pyrazol-1-yl]-1-(4-methylpiperazin-1-yl)ethanone], the Ki in assay [1] was 1300 pM; in assay [2] it was 3700 pM.

Take `CN1CCN(C(=O)Cn2cc(Nc3nc4c(N5CC6CCC(C5)N6C(=O)c5ccsc5)cccn4n3)cn2)CC1` [Example 157, 1-(4-methylpiperazin-1-yl)-2-[4-[[8-[8-(thiophene-3-carbonyl)-3,8-diazabicyclo[3.2.1]octan-3-yl]-[1,2,4]triazolo[1,5-a]pyridin-2-yl]amino]pyrazol-1-yl]ethanone]: the inhibitory constant (Ki) in assay [1] is 400 pM; in assay [2], 1400 pM.

Turning to `CN1CCN(C(=O)Cn2cc(Nc3nc4c(N5CC6CCC(C5)N6S(=O)(=O)Cc5ccccc5F)cccn4n3)cn2)CC1` [Example 158, 2-[4-[[8-[8-[(2-fluorophenyl)methylsulfonyl]-3,8-diazabicyclo[3.2.1]octan-3-yl]-[1,2,4]triazolo[1,5-a]pyridin-2-yl]amino]pyrazol-1-yl]-1-(4-methylpiperazin-1-yl)ethanone], the Ki in assay [1] came to 900 pM; in assay [2], 2800 pM.

As for `CN1CCN(C(=O)Cn2cc(Nc3nc4c(N5CC6CCC(C5)N6S(=O)(=O)Cc5cccc(F)c5)cccn4n3)cn2)CC1` [Example 159, 2-[4-[[8-[8-[(3-fluorophenyl)methylsulfonyl]-3,8-diazabicyclo[3.2.1]octan-3-yl]-[1,2,4]triazolo[1,5-a]pyridin-2-yl]amino]pyrazol-1-yl]-1-(4-methylpiperazin-1-yl)ethanone], the Ki in assay [1] worked out at 700 pM; in assay [2], 2900 pM.

As for `CN1CCN(C(=O)Cn2cc(Nc3nc4c(N5CC6CCC(C5)N6S(=O)(=O)Cc5ccc(F)cc5)cccn4n3)cn2)CC1` [Example 160, 2-[4-[[8-[8-[(4-fluorophenyl)methylsulfonyl]-3,8-diazabicyclo[3.2.1]octan-3-yl]-[1,2,4]triazolo[1,5-a]pyridin-2-yl]amino]pyrazol-1-yl]-1-(4-methylpiperazin-1-yl)ethanone], the figures for the inhibition constant Ki in assay [1] and in assay [2] were 600 pM and 900 pM, respectively.

Turning to `CN1CCN(C(=O)Cn2cc(Nc3nc4c(N5CC6CCC(C5)N6S(=O)(=O)Cc5ccccc5Cl)cccn4n3)cn2)CC1` [Example 161, 2-[4-[[8-[8-[(2-chlorophenyl)methylsulfonyl]-3,8-diazabicyclo[3.2.1]octan-3-yl]-[1,2,4]triazolo[1,5-a]pyridin-2-yl]amino]pyrazol-1-yl]-1-(4-methylpiperazin-1-yl)ethanone], the inhibition constant (Ki) in assay [1] amounted to 600 pM; in assay [2], 700 pM.
